Experimental data from ChEMBL document CHEMBL1201862, “PubChem BioAssay data set” (2004).
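Five compound concentrations were applied to cells in 96-well plates for 48 hours; endpoints were derived by simple linear interpolation of the resulting dose-response curve. GI50 marks 50% less growth.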 Calls of active or inactive are those of the source. Cut-off read from the data, not from the text of the source: active = GI50 up to about 1.1 µM and inactive = higher.

Experiments:
Test in all cases: NCI-60 cell line screen, 48 h
NCI-H23 = system: NCI-H23
KM12 = system: KM12
NCI/ADR-RES = system: NCI/ADR-RES
Hs-578T = system: Hs-578T
RPMI-8226 = system: RPMI-8226
SF-268 = system: SF-268
PC-3 = system: PC-3
NCI-H460 = system: NCI-H460
MDA-MB-435 = system: MDA-MB-435
A549 = system: A549
Malme-3M = system: Malme-3M
K562 = system: K562
SF-295 = system: SF-295
T47D = system: T47D
SW-620 = system: SW-620
CAKI-1 = system: CAKI-1
U-251 = system: U-251
DU-145 = system: DU-145
HCT-15 = system: HCT-15
HCT-116 = system: HCT-116
A498 = system: A498
TK-10 = system: TK-10
SNB-75 = system: SNB-75
HCC 2998 = system: HCC 2998
SNB-19 = system: SNB-19
LOX IMVI = system: LOX IMVI
SF-539 = system: SF-539
EKVX = system: EKVX
IGROV-1 = system: IGROV-1
786-0 = system: 786-0
SN12C = system: SN12C
OVCAR-4 = system: OVCAR-4
SK-MEL-5 = system: SK-MEL-5
ACHN = system: ACHN
UACC-257 = system: UACC-257
NCI-H522 = system: NCI-H522
SK-MEL-28 = system: SK-MEL-28
OVCAR-3 = system: OVCAR-3
HL-60 = system: HL-60
MDA-MB-231 = system: MDA-MB-231
SR = system: SR
RXF 393 = system: RXF 393
M14 = system: M14
MDA-N = system: MDA-N
COLO 205 = system: COLO 205
CCRF-CEM = system: CCRF-CEM
UACC-62 = system: UACC-62
OVCAR-5 = system: OVCAR-5
OVCAR-8 = system: OVCAR-8
MCF7 = system: MCF7
NCI-H226 = system: NCI-H226
HOP-62 = system: HOP-62
HT-29 = system: HT-29
HOP-92 = system: HOP-92
SK-OV-3 = system: SK-OV-3
MOLT-4 = system: MOLT-4
BT-549 = system: BT-549
SK-MEL-2 = system: SK-MEL-2
UO-31 = system: UO-31

## O=C(OCc1c(-c2ccccc2)nn(-c2ccccc2)c1COC(=O)Oc1ccccc1)Oc1ccccc1
NCI-H23
  GI50: > 100 µM (inactive)
KM12
  GI50: > 100 µM (inactive)
NCI/ADR-RES
  GI50: > 100 µM (inactive)
Hs-578T
  GI50: > 100 µM (inactive)
RPMI-8226
  GI50: > 100 µM (inactive)
SF-268
  GI50: > 100 µM (inactive)
PC-3
  GI50: > 100 µM (inactive)
NCI-H460
  GI50: > 100 µM (inactive)
MDA-MB-435
  GI50: > 100 µM (inactive)
A549
  GI50: > 100 µM (inactive)
Malme-3M
  GI50: > 100 µM (inactive)
K562
  GI50: > 100 µM (inactive)
SF-295
  GI50: > 100 µM (inactive)
T47D
  GI50: > 100 µM (inactive)
SW-620
  GI50: > 100 µM (inactive)
CAKI-1
  GI50: > 100 µM (inactive)
U-251
  GI50: > 100 µM (inactive)
DU-145
  GI50: > 100 µM (inactive)
HCT-15
  GI50: > 100 µM
HCT-116
  GI50: > 100 µM (inactive)
A498
  GI50: > 100 µM (inactive)
TK-10
  GI50: > 100 µM (inactive)
SNB-75
  GI50: > 100 µM (inactive)
HCC 2998
  GI50: > 100 µM (inactive)
SNB-19
  GI50: > 100 µM (inactive)
LOX IMVI
  GI50: > 100 µM (inactive)
SF-539
  GI50: > 100 µM (inactive)
EKVX
  GI50: > 100 µM (inactive)
IGROV-1
  GI50: > 100 µM (inactive)
786-0
  GI50: > 100 µM (inactive)
SN12C
  GI50: > 100 µM (inactive)
OVCAR-4
  GI50: > 100 µM (inactive)
SK-MEL-5
  GI50: 31.8 µM (inactive)
ACHN
  GI50: > 100 µM (inactive)
UACC-257
  GI50: > 100 µM (inactive)
NCI-H522
  GI50: > 100 µM (inactive)
SK-MEL-28
  GI50: > 100 µM (inactive)
OVCAR-3
  GI50: > 100 µM (inactive)
HL-60
  GI50: > 100 µM (inactive)
MDA-MB-231
  GI50: > 100 µM (inactive)
SR
  GI50: > 100 µM (inactive)
RXF 393
  GI50: > 100 µM (inactive)
M14
  GI50: > 100 µM (inactive)
MDA-N
  GI50: > 100 µM (inactive)
COLO 205
  GI50: > 100 µM (inactive)
CCRF-CEM
  GI50: > 100 µM (inactive)
UACC-62
  GI50: > 100 µM (inactive)
OVCAR-5
  GI50: > 100 µM (inactive)
OVCAR-8
  GI50: > 100 µM (inactive)
MCF7
  GI50: > 100 µM (inactive)
NCI-H226
  GI50: > 100 µM (inactive)
HOP-62
  GI50: > 100 µM (inactive)
HT-29
  GI50: > 100 µM (inactive)
HOP-92
  GI50: > 100 µM (inactive)
SK-OV-3
  GI50: > 100 µM (inactive)
MOLT-4
  GI50: > 100 µM (inactive)

## COc1ccc(CNC(=O)NCn2cc(-c3ccccc3)nn2)cc1
NCI-H23
  GI50: > 100 µM (inactive)
KM12
  GI50: > 100 µM (inactive)
NCI/ADR-RES
  GI50: > 100 µM (inactive)
RPMI-8226
  GI50: > 100 µM (inactive)
SF-268
  GI50: > 100 µM (inactive)
PC-3
  GI50: > 100 µM (inactive)
NCI-H460
  GI50: > 100 µM (inactive)
MDA-MB-435
  GI50: > 100 µM (inactive)
A549
  GI50: > 100 µM (inactive)
Malme-3M
  GI50: > 100 µM (inactive)
K562
  GI50: > 100 µM (inactive)
SF-295
  GI50: > 100 µM (inactive)
SW-620
  GI50: > 100 µM (inactive)
CAKI-1
  GI50: > 100 µM (inactive)
BT-549
  GI50: > 100 µM (inactive)
U-251
  GI50: > 100 µM (inactive)
DU-145
  GI50: > 100 µM (inactive)
HCT-15
  GI50: > 100 µM
HCT-116
  GI50: > 100 µM (inactive)
TK-10
  GI50: > 100 µM (inactive)
SNB-75
  GI50: > 100 µM (inactive)
HCC 2998
  GI50: 14.1 µM (inactive)
SNB-19
  GI50: > 100 µM (inactive)
LOX IMVI
  GI50: > 100 µM (inactive)
SF-539
  GI50: > 100 µM (inactive)
EKVX
  GI50: > 100 µM (inactive)
IGROV-1
  GI50: > 100 µM (inactive)
786-0
  GI50: > 100 µM (inactive)
SN12C
  GI50: > 100 µM (inactive)
OVCAR-4
  GI50: > 100 µM (inactive)
SK-MEL-5
  GI50: > 100 µM (inactive)
ACHN
  GI50: > 100 µM (inactive)
UACC-257
  GI50: > 100 µM (inactive)
NCI-H522
  GI50: > 100 µM (inactive)
SK-MEL-28
  GI50: > 100 µM (inactive)
HL-60
  GI50: > 100 µM (inactive)
MDA-MB-231
  GI50: > 100 µM (inactive)
SR
  GI50: > 100 µM (inactive)
M14
  GI50: > 100 µM (inactive)
COLO 205
  GI50: > 100 µM (inactive)
CCRF-CEM
  GI50: > 100 µM (inactive)
OVCAR-5
  GI50: > 100 µM (inactive)
OVCAR-8
  GI50: > 100 µM (inactive)
MCF7
  GI50: > 100 µM (inactive)
SK-MEL-2
  GI50: > 100 µM (inactive)
HOP-62
  GI50: > 100 µM (inactive)
HT-29
  GI50: > 100 µM (inactive)
HOP-92
  GI50: > 100 µM (inactive)
MOLT-4
  GI50: > 100 µM (inactive)

## Cc1ccc(SC[C@@]2(C(F)F)NC(=O)NC2=O)cc1
UO-31
  GI50: > 100 µM (inactive)
NCI-H23
  GI50: > 100 µM (inactive)
KM12
  GI50: > 100 µM (inactive)
NCI/ADR-RES
  GI50: > 100 µM (inactive)
Hs-578T
  GI50: > 100 µM (inactive)
RPMI-8226
  GI50: > 100 µM (inactive)
SF-268
  GI50: > 100 µM (inactive)
PC-3
  GI50: > 100 µM (inactive)
NCI-H460
  GI50: > 100 µM (inactive)
MDA-MB-435
  GI50: > 100 µM (inactive)
A549
  GI50: > 100 µM (inactive)
Malme-3M
  GI50: > 100 µM (inactive)
K562
  GI50: > 100 µM (inactive)
SF-295
  GI50: > 100 µM (inactive)
T47D
  GI50: > 100 µM (inactive)
SW-620
  GI50: > 100 µM (inactive)
CAKI-1
  GI50: > 100 µM (inactive)
BT-549
  GI50: > 100 µM (inactive)
U-251
  GI50: > 100 µM (inactive)
DU-145
  GI50: > 100 µM (inactive)
HCT-15
  GI50: > 100 µM
HCT-116
  GI50: > 100 µM (inactive)
A498
  GI50: > 100 µM (inactive)
TK-10
  GI50: > 100 µM (inactive)
SNB-75
  GI50: > 100 µM (inactive)
HCC 2998
  GI50: > 100 µM (inactive)
SNB-19
  GI50: > 100 µM (inactive)
LOX IMVI
  GI50: > 100 µM (inactive)
EKVX
  GI50: > 100 µM (inactive)
IGROV-1
  GI50: > 100 µM (inactive)
786-0
  GI50: > 100 µM (inactive)
OVCAR-4
  GI50: > 100 µM (inactive)
SK-MEL-5
  GI50: > 100 µM (inactive)
ACHN
  GI50: > 100 µM (inactive)
UACC-257
  GI50: > 100 µM (inactive)
NCI-H522
  GI50: > 100 µM (inactive)
SK-MEL-28
  GI50: > 100 µM (inactive)
OVCAR-3
  GI50: > 100 µM (inactive)
HL-60
  GI50: > 100 µM (inactive)
MDA-MB-231
  GI50: > 100 µM (inactive)
SR
  GI50: > 100 µM (inactive)
RXF 393
  GI50: > 100 µM (inactive)
M14
  GI50: > 100 µM (inactive)
COLO 205
  GI50: > 100 µM (inactive)
CCRF-CEM
  GI50: > 100 µM (inactive)
UACC-62
  GI50: > 100 µM (inactive)
OVCAR-5
  GI50: > 100 µM (inactive)
OVCAR-8
  GI50: > 100 µM (inactive)
SK-MEL-2
  GI50: > 100 µM (inactive)
NCI-H226
  GI50: > 100 µM (inactive)
HOP-62
  GI50: > 100 µM (inactive)
HT-29
  GI50: > 100 µM (inactive)
HOP-92
  GI50: > 100 µM (inactive)
SK-OV-3
  GI50: > 100 µM (inactive)
MOLT-4
  GI50: > 100 µM (inactive)
